These results are taken from patent US9351494B2, “Honeybee repellents and uses thereof” (Inscent, Inc., priority 2013, dated 2016).

In data set [1] the test system is Apis mellifera Carniolan foraging worker honeybees. In words: proboscis extension response (PER) assay with bees conditioned to 2-heptanone. Format: in vivo. Particulars: for 2-heptanone positive bees testing positive to compound: PER, compound 0.5% on filter paper, 4 seconds exposure, only bees giving a PER with 2-heptanone but not with negative controls counted. As for the experimental part: To determine whether a living honeybee can recognize a candidate compound, these compounds were tested using a proboscis extension response (PER) assay using classical conditioning approaches. Proboscis extension response conditioning is a case of appetitive learning, in which bees learn to associate odor stimuli with sucrose reward in the laboratory. In this case, bees were conditioned to produce a PER to 2-heptanone as the conditioned stimulus and a sugar reward as the unconditioned stimulus. These trained bees were then exposed to an odor pulse of a candidate compound to test whether a candidate compound would also produce a PER. If the candidate compound “mimics” 2-heptanone then the honeybee will extend its proboscis. For conditioning procedures, Apis mellifera Carniolan foraging worker honeybees were obtained from a local apiary (typically 60 bees per shipment). The honeybees were held overnight in insect cages with food and water freely available, in an environmentally controlled room on a light cycle similar to the ambient cycle at the time of the assay. For conditioning procedures, all tests were done in an odorant delivery apparatus set inside a fume hood. The apparatus comprised a set of open-ended, horizontal, 3 cm diameter by 10 cm long plastic tubes. Each tube was designed where a honeybee could be positioned at the distal end of a tube, with the opening at the other end of the tube located proximal to an inlet of the fume hood. To deliver an odorant, room air was pumped by a diaphragm pump through a particle filter via 0.25 inch plastic tubing at approximately 0.7 m/sec. The air flow passes into the headspace above an odorant (0.5% [v/v]2-heptanone dissolved in odorless light paraffin oil) contained in a 100 mL bottle. The headspace air then passes through another plastic tube to a manifold of 4-way valves, each of which was attached near the proximal end of a plastic tube containing a bee. Each bee was exposed separately for a desired time period to the odorant by opening and closing the appropriate valve. When each valve was closed, the odor was flushed away immediately by the continuous fume hood air stream. To train a honeybee to respond to a conditioned and unconditioned stimuli, bees were placed, without anesthesia, in individual 1.5 mL micro-centrifuge holding tubes and held overnight without access to food or water. The holding tubes containing the starved bees were placed in racks in groups of eight. One rack at a time was placed behind the odorant delivery apparatus so that each bee's head is centered at the distal end of a horizontal plastic tube. Each bee was exposed to the 2-heptanone odorant alone for four seconds, and then while being fed an 80% sucrose solution for and additional three seconds. The sucrose solution was delivered on a piece of saturated filter paper held in forceps. […] Positive and negative responses were recorded. A positive PER was scored when a bee extended its proboscis before the sucrose appeared. In a typical trial, 48 individual bees were subjected to conditioning. Six rounds of training were done before testing began, and typically a majority of the bees were successfully conditioned by the second or third round of training. After conditioning, honeybees were tested with the candidate compounds the same day or on the following day or, most commonly, both. When held overnight, bees were fed with sucrose and kept in their holding tubes. When tested the day after training, bees were given one or more rounds of conditioning with 2-heptatone to refresh their memories. Candidate compounds stocks were made at 5% (w/v) in polyoxyethylene octyl phenyl ether (TRITON® X-100), a non-ionic detergent/surfactant, and stored at 4° C. This detergent is similar to substances used as carriers for a variety of commercial pest-control agents, can act as a solvent for both hydrophilic and hydrophobic substances, and is itself nearly odorless. […]

The conditions of data set [2]: cited from earlier work.
In a further data set the test system is OBP2. In words: fluorescent-quench, ligand-protein-binding assay (OBP2 binding). The arrangement: species or system Apis mellifera. An excerpt:
To identify a honeybee repellent disclosed herein, candidate compounds were screened based upon the fact that 2-heptanone is an established repellent of bees. 2-heptanone is thought to mediate its behavioral response through binding to a specific odorant-binding protein called OBP2. Therefore compounds that bind OBP2 have the potential to act as odor “mimics” of 2-heptanone. By utilizing a fluorescent-quench, ligand-protein-binding assay, 30,000 compounds from the […]® library (ChemBridge Corp., San Diego, Calif.), a chemical library, were screened and over 150 candidate compounds were isolated that bind OBP2 (Table 1). Such assays are generally known in the art. See, e.g., Briand, et al., Ligand-Binding Properties and Structural Characterization of a Novel Rat Odorant-Binding Protein Variant, Eur. J. Biochem. 267(10): 3079-3089 (2000); Briand, et al., Ligand Binding and Physico-Chemical Properties of ASP2, A Recombinant Odorant-Binding Protein From Honeybee (Apis mellifera L.), Eur. J. Biochem. 268(3): 752-760 (2001); Briand, et al., Characterization of a Chemosensory Protein (ASP3c) from Honeybee (Apis mellifera L.) as a Brood Pheromone Carrier, Eur. J. Biochem. 269(18): 4586-4596 (2002), each of which is hereby incorporated by reference in its entirety.

Data set [3] has as its system Apis mellifera Carniolan foraging worker honeybees. Briefly: choice test in a free-flight box apparatus. Format: in vivo. The conditions noted are these: for Z-score: Z-test (alpha=10%) versus control likelihood 47.5%, critical Z-score 1.282, positive value attractant, negative repellant; for nP (number of tests a honeybee returned to a preferred test dish): candidate compound 0.05-0.5% on filter paper below honey dish, out of n total tests; for P (probability that a honeybee will return to a test dish, nP/n): compared to control likelihood of 47.5% without compound. An excerpt:
To determine whether living honeybees will choice to move towards a source of a candidate compound, these compounds will be assayed using a choice test in a free-flight box apparatus.
All tests will be done in a free-flight box apparatus. The apparatus comprises a 244 cm long×46 cm deep×30 cm high clear plastic box including two equally-sized independent testing chambers, each with 10 cm diameter air inlets that admit filtered room air, separated by a smaller central chamber with a screened air outlet to each testing chamber. Air can be pulled through the sealed box via a 10 cm diameter duct from the air outlet using an AQE Fume Fighter 500 fume extractor (BPA Air Quality Solutions, LLC, Charleston, S.C.), which removes the test odors using activated charcoal and HEPA filters. The box is housed in an environmentally controlled room with overhead illumination timed to correspond to the current ambient light cycle including 2 additional sets of lights timed to approximate crepuscular lighting conditions. The bottom of the apparatus will be lined with clean absorbent paper marked with a 4×9 grid pattern, forming 12 cm×12 cm squares with marked coordinates.
Apis mellifera Carniolan foraging worker honeybees will be obtained from a local apiary (typically 60 bees per shipment). Thirty honeybees will be put into each testing chamber and will be allowed to acclimate for 24 hours with food and water freely available. At the beginning of each test day all food will be removed from the test chamber, but water will be continually available throughout all tests. For each test, approximately 0.3 g of organic, raw orange blossom honey will be added to each clean small plastic weigh boat (Cole-Palmer). The honey boats will be placed in small plastic culture dishes, which will be distributed in the marked squares in the chambers. The positions of the dishes on the grid for a set of trials was chosen to avoid bees' preferred resting area so that they will have to find the food actively, but the same dish positions will be maintained for a given set of trials. We will use seven dishes of honey: six to which the bees will have access and a seventh that will have a screened lid. The honey in each boat was weighed on an analytical balance before and after the test, with the screened sample as a control for evaporative loss. The fume extractor was left off during the experimental trails, and was turned on to clear the air after the test dishes were covered and removed from the chamber at the end of each trial.
Based on the observation that bees tend to return to dishes in the same position where they have fed before, each set of trials with each group of bees began with “Pattern Identification” tests to see which dishes lose the most weight, reflecting the most feeding. Once bees are consuming an acceptable amount in 10-15 min, typically in 1-2 trials, a set of test compound trials will begin. The test compound will be pipetted onto pieces of filter paper placed on the dish bottom below the boat containing a fresh, weighed honey sample so that the test compound will be inaccessible to the bees. We used 2 μL of a candidate compound at a concentration of 0.05-0.5%, in Triton X-100 or paraffin oil, on each of four pieces of filter paper per dish. The test-solution dishes will be set at the same positions as the one or two dishes favored in the preceding Pattern Identification trial. To eliminate interference from the solvent, the other dishes without the test substance will contain the same volume of the appropriate solvent on filter papers as the test solution dishes. The bees will be allowed to feed for 10-15 minutes. Bee movements will be recorded by a small, wide-angle digital video camcorder (HD Hero 960; GoPro, Halfmoon Bay, Calif.) placed on a tripod in front of the test chamber. […]

As to `CCCCCC(C)=O` [2-heptanone, 2-Heptanone], the “total bees subjected to conditioning that exhibited a PER with the 2-heptanone positive control” value in data set [1] (0.5% 2-heptanone in paraffin oil) is listed as “about half”. Further, the “solubility in alcohol or ether” value in data set [2] (alcohol or ether) was “soluble”. Further, in data set [2] (water), the solubility in water entry is recorded as “very slightly soluble”.
With `O=C(NC(=S)N1CCCc2ccccc21)c1ccccc1` [Candidate Compound 62, N-(3,4-dihydro-1(2H)-quinolinylcarbonothioyl)benzamide], the “OBP2 binding characteristic of compound” value in the data set with OBP2 is “Moderate (Moderate, indicates that 50% or less of the compound bound to OBP2.)”. Besides, the “2-heptanone positive bees testing positive to compound” value in data set [1] was 23.6%.
As to `COc1ccc(C2SCC(=O)N2CCc2ccccc2)cc1` (centres unmarked) [Candidate Compound 63, 2-(4-methoxyphenyl)-3-(2-phenylethyl)-1,3-thiazolidin-4-one], the “OBP2 binding characteristic of compound” value with OBP2 is recorded as “Moderate (Moderate, indicates that 50% or less of the compound bound to OBP2.)”. In addition, the “2-heptanone positive bees testing positive to compound” value in data set [1] was found to be 21.4%. For the same compound, in data set [3], the Z-score was determined as 0.394; the “nP (number of tests a honeybee returned to a preferred test dish)” value was found to be 32; the “P (probability that a honeybee will return to a test dish, nP/n)” value came to 0.5.
Regarding `CCOc1cc(C)nc(-c2ccccc2O)n1` [Candidate Compound 64, 2-(4-ethoxy-6-methyl-2-pyrimidinyl)phenol], the “OBP2 binding characteristic of compound” value in the data set on OBP2 was “Moderate (Moderate, indicates that 50% or less of the compound bound to OBP2.)”. In addition, in data set [1], the “2-heptanone positive bees testing positive to compound” value stood at 21.7%. In addition, in data set [3], the Z-score was −3.043; the “nP (number of tests a honeybee returned to a preferred test dish)” value was 16; the “P (probability that a honeybee will return to a test dish, nP/n)” value worked out at 0.276.
`COc1ccc(CCC(C)NN2CCOCC2)cc1` (centres unmarked) [Candidate Compound 65, N-[3-(4-methoxyphenyl)-1-methylpropyl]-4-morpholinamine]: the “OBP2 binding characteristic of compound” value with OBP2 was “Moderate (Moderate, indicates that 50% or less of the compound bound to OBP2.)”. Moreover, the “2-heptanone positive bees testing positive to compound” value in data set [1] is recorded as 7.6%.
In the case of `CCOC(=O)c1c(NC(=O)C(C)(C)C)sc2c1CCCC2` [Candidate Compound 69, ethyl 2-[(2,2-dimethylpropanoyl)amino]-4,5,6,7-tetrahydro-1-benzothiophene-3-carboxylate], in the data set on OBP2, the “OBP2 binding characteristic of compound” value is given as “Moderate (Moderate, indicates that 50% or less of the compound bound to OBP2.)”. In addition, the “2-heptanone positive bees testing positive to compound” value in data set [1] is recorded as 6.5%.
`Nc1c(C(=O)c2ccccc2)sc2nc(-c3ccccc3)ccc12` [Candidate Compound 76, (3-amino-6-phenylthieno[2,3-b]pyridin-2-yl)(phenyl)methanone]: the “OBP2 binding characteristic of compound” value in the data set with OBP2 is listed as “Moderate (Moderate, indicates that 50% or less of the compound bound to OBP2.)”. For the same compound, in data set [1], the “2-heptanone positive bees testing positive to compound” value was found to be 11.9%.
Turning to `C=CCOc1cc(C)nc(-c2ccccc2O)n1` [Candidate Compound 104, 2-[4-(allyloxy)-6-methyl-2-pyrimidinyl]phenol], the “OBP2 binding characteristic of compound” value with OBP2 was “Moderate (Moderate, indicates that 50% or less of the compound bound to OBP2.)”. For the same compound, in data set [1], the “2-heptanone positive bees testing positive to compound” value amounted to 27.9%.
